In US6992169B2, “Carrier based drug delivery system” (Cyclacel Limited, priority 1998, dated 2006):
Where no end group is shown, it is not given here.

Key:
[1] = Serum stability of peptide vectors; details: for half-life: bovine, serum
Protocol: Test compounds were dissolved in cell-conditioned tissue culture medium (10% FCS in DMEM) at concentrations varying from 1 to 40 μM. The solutions were incubated at 37° C. and samples were withdrawn at intervals. After filtration, aliquots were analysed by RP-HPLC (using a photodiode array UV detector). Intact vectors were identified by reference to chromatograms obtained with authentic peptides and by DE MALDI-TOF analysis of appropriate peak fractions. […] The latter was chosen preferentially in order to replicate the conditions used for cytotoxicity assays on cell cultures.

[2] = Serum stability of drug-ester linkages; assay type: in vitro ADME; details: bovine, cell-conditioned tissue culture medium (FCS in DMEM); 10% FCS in DMEM, 1 to 40 μM, 37° C.; appearance of free drug; read-out: Serum t1/2 of Drug-Linker Ester bond
Protocol: Hydrolysis of the ester bonds between the drug hydroxy groups and the linker carboxyl groups was assessed by appearance of free podophyllotoxin or paclitaxel.

[3] = test system: HaCaT cells; experiment: In vitro cytotoxic activity, inhibition of cell proliferation, ATP bioluminescence (ViaLight); assay type: cell-based, human
Protocol: (§1) This compound (abbreviated ‘MTX-Pen’ in the tables below) was evaluated for its ability to inhibit cell proliferation of normal (immortalised) human cells (HaCaT cells, Tables 1 & 2) and a human colorectal cancer cell line (HT29, Table 3).
(§2) Assay procedure—Cells were seeded into 96-well plates at 2,500 cells/well in DMEM with 10% FCS and antibiotics. After overnight incubation, test compound dilutions in cell medium were prepared and were added to the cells. Samples were taken 1, 2, 3, and 4 days after compound addition. Nucleotide Releasing Reagent (LumiTech ViaLight kit) was added in order to lyse the cells and release ATP. After incubation at room temperature (5 min), the mixtures were transferred to opaque 96-well plates and stored at −20° C. until analysis. After loading plates into a luminometer (Lucy 1, Labtech International), ATP Monitoring Reagent (20 μL/well, LumiTech ViaLight kit) was added to each well successively and light intensity was measured immediately. Six readings were taken per sample. Each assay point was established using six replicates and appropriate controls. […] Statistically significant results in the tables below are printed in bold face.
(§3) This compound (abbreviated ‘MTX-Pen’ in tables below) was evaluated for its ability to inhibit cell proliferation of normal (immortalised) human cells (HaCaT cells, Tables 1 & 2) and a human colorectal cancer cell line (HT29, Table 3).
(§4) Assay procedure—Cells were seeded into 96-well plates at 2,500 cells/well in DMEM with 10% foetal calf serum and antibiotics. After overnight incubation, test compound dilutions in cell medium were prepared and were added to the cells. Samples were taken 1, 2, 3, and 4 days after compound addition. Nucleotide Releasing Reagent (LumiTech ViaLight kit) was added in order to lyse the cells and release ATP. After incubation at room temperature (5 min), the mixtures were transferred to opaque 96-well plates and stored at −20° C. until analysis. After loading plates into a luminometer (Lucy 1, Labtech International), ATP Monitoring Reagent ([…], LumiTech ViaLight kit) was added to each well successively and light intensity was measured immediately. Six readings were taken per sample. Each assay point was established using six replicates and appropriate controls.

[4] = test system: HT29; experiment: as above; assay type: cell-based, human
Protocol: as §1, §2, §3, §4

CC[C@H](C)[C@H](NC(=O)[C@H](CCCCN)NC(=O)[C@@H](NC(=O)[C@H](CCC(N)=O)NC(=O)[C@@H](N)CCCNC(=N)N)[C@@H](C)CC)C(=O)N[C@@H](Cc1c[nH]c2ccccc12)C(=O)N[C@@H](Cc1ccccc1)C(=O)N[C@@H](CCC(N)=O)C(=O)N[C@@H](CC(N)=O)C(=O)N[C@@H](CCCNC(=N)N)C(=O)N[C@@H](CCCNC(=N)N)C(=O)N[C@@H](CCSC)C(=O)N[C@@H](CCCCN)C(=O)N[C@@H](Cc1c[nH]c2ccccc12)C(=O)N[C@@H](CCCCN)C(=O)N[C@@H](CCCCN)C(N)=O
half-life [1]: > 12 h

CC[C@H](C)[C@H](NC(=O)[C@H](CCCCN)NC(=O)[C@@H](NC(=O)[C@H](CCC(N)=O)NC(=O)[C@H](CCCNC(=N)N)NC(=O)[C@@H](N)CSC1CC(=O)N(CCC(=O)O[C@@H](C(=O)O[C@H]2C[C@@]3(O)[C@@H](OC(=O)c4ccccc4)[C@@H]4[C@]5(OC(C)=O)CO[C@@H]5C[C@H](O)[C@@]4(C)C(=O)[C@H](OC(C)=O)C(=C2C)C3(C)C)[C@@H](NC(=O)c2ccccc2)c2ccccc2)C1=O)[C@@H](C)CC)C(=O)N[C@@H](Cc1c[nH]c2ccccc12)C(=O)N[C@@H](Cc1ccccc1)C(=O)N[C@@H](CCC(N)=O)C(=O)N[C@@H](CC(N)=O)C(=O)N[C@@H](CCCNC(=N)N)C(=O)N[C@@H](CCCNC(=N)N)C(=O)N[C@@H](CCSC)C(=O)N[C@@H](CCCCN)C(=O)N[C@@H](Cc1c[nH]c2ccccc12)C(=O)N[C@@H](CCCCN)C(=O)N[C@@H](CCCCN)C(N)=O (single isomer, unassigned) [C]
half-life [2]: > 12 h

CC[C@@H](C)[C@@H](NC(=O)[C@@H](CCCCN)NC(=O)[C@H](NC(=O)[C@@H](CCC(N)=O)NC(=O)[C@H](N)CCCNC(=N)N)[C@H](C)CC)C(=O)N[C@H](Cc1c[nH]c2ccccc12)C(=O)N[C@H](Cc1ccccc1)C(=O)N[C@H](CCC(N)=O)C(=O)N[C@H](CC(N)=O)C(=O)N[C@H](CCCNC(=N)N)C(=O)N[C@H](CCCNC(=N)N)C(=O)N[C@H](CCSC)C(=O)N[C@H](CCCCN)C(=O)N[C@H](Cc1c[nH]c2ccccc12)C(=O)N[C@H](CCCCN)C(=O)N[C@H](CCCCN)C(N)=O [H-D-Arg-D-Gln-D-Ile-D-Lys-D-Ile-D-Trp-D-Phe-D-Gln-D-Asn-D-Arg-D-Arg-D-Met-D-Lys-D-Trp-D-Lys-D-Lys-NH3]
half-life [1]: > 24 h

H-RRMKWKK-NH2 [H-Arg-Arg-Met-Lys-Trp-Lys-Lys-NH2]
half-life [1]: 3 h

RQIKIWFQNRRMKWK [15mer peptide]
Serum stability of vector in words [1]: survive for several h

{[4[N-(2,4-Diamino-6-pteridinyl-methyl)-N-methylamino]benzoyl]-Glu-Gly-βAla}4-Lys2-Lys-βAla-Arg-Gln-Ile-Lys-Ile-Trp-Phe-Gln-Asn-Arg-Arg-Met-Lys-Trp-Lys-Lys-OH [MTX-Pen]
% Cell Death ([3]; Table 1, HaCaT, Dose 0.2 μM, Day 1): 14% | % Cell Death ([3]; Table 1, HaCaT, Dose 0.2 μM, Day 2): 21% | % Cell Death ([3]; Table 1, HaCaT, Dose 0.2 μM, Day 3): 20% | % Cell Death ([3]; Table 1, HaCaT, Dose 0.2 μM, Day 4): 51% | % Cell Death ([3]; Table 1, HaCaT, Dose 0.5 μM, Day 1): −19% | % Cell Death ([3]; Table 1, HaCaT, Dose 0.5 μM, Day 2): 2% | % Cell Death ([3]; Table 1, HaCaT, Dose 0.5 μM, Day 3): 29% | % Cell Death ([3]; Table 1, HaCaT, Dose 0.5 μM, Day 4): 49% | % Cell Death ([3]; Table 1, HaCaT, Dose 1.5 μM, Day 1): −24% | % Cell Death ([3]; Table 1, HaCaT, Dose 1.5 μM, Day 2): 82% | % Cell Death ([3]; Table 1, HaCaT, Dose 1.5 μM, Day 3): 82% | % Cell Death ([3]; Table 1, HaCaT, Dose 1.5 μM, Day 4): 88% | % Cell Death ([3]; Table 1, HaCaT, Dose 4.4 μM, Day 1): −8% | % Cell Death ([3]; Table 1, HaCaT, Dose 4.4 μM, Day 2): 45% | % Cell Death ([3]; Table 1, HaCaT, Dose 4.4 μM, Day 3): 95% | % Cell Death ([3]; Table 1, HaCaT, Dose 4.4 μM, Day 4): 98% | % Cell Death ([3]; Table 1, HaCaT, Dose 13.3 μM, Day 1): −42% | % Cell Death ([3]; Table 1, HaCaT, Dose 13.3 μM, Day 2): 63% | % Cell Death ([3]; Table 1, HaCaT, Dose 13.3 μM, Day 3): 97% | % Cell Death ([3]; Table 1, HaCaT, Dose 13.3 μM, Day 4): 98% | % Cell Death ([3]; Table 1, HaCaT, Dose 40.0 μM, Day 1): 29% | % Cell Death ([3]; Table 1, HaCaT, Dose 40.0 μM, Day 2): 82% | % Cell Death ([3]; Table 1, HaCaT, Dose 40.0 μM, Day 3): 97% | % Cell Death ([3]; Table 1, HaCaT, Dose 40.0 μM, Day 4): 98% | % Cell Death ([3]; Table 2, HaCaT, Dose 0.5 μM, Day 1): 13% | % Cell Death ([3]; Table 2, HaCaT, Dose 0.5 μM, Day 2): 24% | % Cell Death ([3]; Table 2, HaCaT, Dose 0.5 μM, Day 3): −27% | % Cell Death ([3]; Table 2, HaCaT, Dose 0.5 μM, Day 4): 2% | % Cell Death ([3]; Table 2, HaCaT, Dose 1.5 μM, Day 1): 19% | % Cell Death ([3]; Table 2, HaCaT, Dose 1.5 μM, Day 2): 12% | % Cell Death ([3]; Table 2, HaCaT, Dose 1.5 μM, Day 3): −16% | % Cell Death ([3]; Table 2, HaCaT, Dose 1.5 μM, Day 4): 17% | % Cell Death ([3]; Table 2, HaCaT, Dose 4.4 μM, Day 1): 15% | % Cell Death ([3]; Table 2, HaCaT, Dose 4.4 μM, Day 2): 52% | % Cell Death ([3]; Table 2, HaCaT, Dose 4.4 μM, Day 3): 95% | % Cell Death ([3]; Table 2, HaCaT, Dose 4.4 μM, Day 4): 88% | % Cell Death ([3]; Table 2, HaCaT, Dose 13.3 μM, Day 1): 27% | % Cell Death ([3]; Table 2, HaCaT, Dose 13.3 μM, Day 2): 87% | % Cell Death ([3]; Table 2, HaCaT, Dose 13.3 μM, Day 3): 95% | % Cell Death ([3]; Table 2, HaCaT, Dose 13.3 μM, Day 4): 94% | % Cell Death ([3]; Table 2, HaCaT, Dose 40.0 μM, Day 1): 42% | % Cell Death ([3]; Table 2, HaCaT, Dose 40.0 μM, Day 2): 88% | % Cell Death ([3]; Table 2, HaCaT, Dose 40.0 μM, Day 3): 95% | % Cell Death ([3]; Table 2, HaCaT, Dose 40.0 μM, Day 4): 94% | % Cell Death ([4]; Table 3, HT 29, Dose 0.5 μM, Day 1): 14% | % Cell Death ([4]; Table 3, HT 29, Dose 0.5 μM, Day 2): 8% | % Cell Death ([4]; Table 3, HT 29, Dose 0.5 μM, Day 3): 17% | % Cell Death ([4]; Table 3, HT 29, Dose 0.5 μM, Day 4): 16% | % Cell Death ([4]; Table 3, HT 29, Dose 1.5 μM, Day 1): 16% | % Cell Death ([4]; Table 3, HT 29, Dose 1.5 μM, Day 2): 9% | % Cell Death ([4]; Table 3, HT 29, Dose 1.5 μM, Day 3): 15% | % Cell Death ([4]; Table 3, HT 29, Dose 1.5 μM, Day 4): 45% | % Cell Death ([4]; Table 3, HT 29, Dose 4.4 μM, Day 1): 10% | % Cell Death ([4]; Table 3, HT 29, Dose 4.4 μM, Day 2): 6% | % Cell Death ([4]; Table 3, HT 29, Dose 4.4 μM, Day 3): 46% | % Cell Death ([4]; Table 3, HT 29, Dose 4.4 μM, Day 4): 77% | % Cell Death ([4]; Table 3, HT 29, Dose 13.3 μM, Day 1): 3% | % Cell Death ([4]; Table 3, HT 29, Dose 13.3 μM, Day 2): 45% | % Cell Death ([4]; Table 3, HT 29, Dose 13.3 μM, Day 3): 88% | % Cell Death ([4]; Table 3, HT 29, Dose 13.3 μM, Day 4): 96% | % Cell Death ([4]; Table 3, HT 29, Dose 40.0 μM, Day 1): 31% | % Cell Death ([4]; Table 3, HT 29, Dose 40.0 μM, Day 2): 79% | % Cell Death ([4]; Table 3, HT 29, Dose 40.0 μM, Day 3): 96% | % Cell Death ([4]; Table 3, HT 29, Dose 40.0 μM, Day 4): 98%
